This note sets out measurements from ChEMBL document CHEMBL1201862, “PubChem BioAssay data set” (2004).

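Compound exposure: 48 hours, 5 concentrations, 96-well plates. Here, GI50 denotes the concentration required for 50% inhibition of growth.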 Calls of active or inactive are those of the source. No stated cut-off is given here; in the data, active = GI50 up to about 1.1 µM and inactive = higher.

Holding throughout (test): DTP human tumour cell line panel, 48 h
The subject of assay [1] is MOLT-4.
For assay [2], the system named is HOP-62.
For assay [3], the system named is SF-268.
In assay [4] the test system is SK-MEL-2.
In assay [5] the test system is U-251.
Assay [6] has as its system NCI/ADR-RES.
Assay [7] concerns TK-10.
Assay [8] has as its system SNB-75.
Assay [9] relates to CAKI-1.
The subject of assay [10] is Malme-3M.
In assay [11] the test system is SK-MEL-28.
The subject of assay [12] is SK-OV-3.
In assay [13] the test system is NCI-H23.
In assay [14] the test system is MDA-MB-435.
Assay [15] deals with HCC 2998.
The subject of assay [16] is SF-539.
Assay [17] concerns HL-60.
The test system of assay [18] is RPMI-8226.
For assay [19], the system named is HCT-116.
Assay [20] deals with DU-145.

For `COc1cc(C2SCC(=O)N2c2ccc(Cl)cc2)cc(OC)c1OC` (centres undefined), the GI50 was 1.69 µM (inactive) in assay [1]; 21.1 µM (inactive) in assay [2]; 97.5 µM (inactive) in [3]; 8.51 µM (inactive) in assay [4]; > 79.4 µM (inactive) in [5]; 20.4 µM (inactive) in assay [6]. The GI50 in assay [7] is > 100 µM (inactive); in [8] it was > 100 µM (inactive); in assay [9], 10.4 µM (inactive); in assay [10], > 100 µM (inactive); in assay [11] it was > 72.9 µM (inactive); in [12] it was > 94.6 µM (inactive). Besides, the GI50 in assay [13] was 26.2 µM (inactive); in assay [14] it was 0.635 µM (active); in [15], > 30.2 µM (inactive); in [16] it was > 100 µM (inactive); in assay [17] it was 2.46 µM (inactive); in [18] it was 8.93 µM (inactive). Besides, the GI50 in assay [19] was 8.11 µM (inactive).

Turning to `O=c1[nH]c2ccccc2c(=O)n1/N=C/c1ccc(O)cc1`, the GI50 in assay [1] was > 100 µM (inactive); in [2] it was 20.9 µM (inactive); in [3], 42.2 µM (inactive); in assay [4], 66.7 µM (inactive); in assay [20], > 100 µM (inactive); in [5], 79.4 µM (inactive). Besides, the GI50 in assay [6] was 50.9 µM (inactive); in assay [7] it was > 100 µM (inactive); in assay [8], 41.4 µM (inactive); in [9] it was > 100 µM (inactive); in [11], > 100 µM (inactive); in assay [12] it was > 100 µM (inactive). Also, the GI50 in [13] is > 100 µM (inactive); in assay [14] it was > 100 µM (inactive); in [16], 66.5 µM (inactive); in [17] it was > 100 µM (inactive); in [18] it was > 100 µM (inactive); in assay [19] it was > 100 µM (inactive).

`CC[C@@]1(C[C@H]2C[C@@]3(C(=O)OC)c4[nH]c5ccccc5c4CCN3C2=O)COC2(CCCCC2)O1`: the GI50 in [1] was 16.6 µM (inactive); in assay [2], 22.3 µM (inactive); in [3], 30.3 µM (inactive); in assay [4], 32.2 µM (inactive); in assay [20] it was 41.8 µM (inactive); in [6], 31.8 µM (inactive). For the same compound, the GI50 in assay [7] is 32.8 µM (inactive); in assay [8], 46.8 µM (inactive); in [9] it was 36.2 µM (inactive); in [10], 55.3 µM (inactive); in assay [12], 69.5 µM (inactive); in [13] it was 24.2 µM (inactive). Moreover, the GI50 in assay [15] was 21.2 µM (inactive); in assay [16], 35.1 µM (inactive); in assay [17] it was 18.9 µM (inactive); in assay [19], 30 µM (inactive).

With `O=C(/C=C/C=C/c1ccccc1)c1ccc2c(c1)CCCC2`, the GI50 in [1] was 25.9 µM (inactive); in assay [2], 91.6 µM (inactive); in assay [3], 16.2 µM (inactive); in assay [4], 83.2 µM (inactive); in assay [20], 25.5 µM (inactive); in assay [5], 35 µM (inactive). Besides, the GI50 in assay [6] was 25.8 µM (inactive); in assay [7], 73.6 µM (inactive); in [9], 74.3 µM (inactive); in assay [11], > 100 µM (inactive); in [12] it was 72.9 µM (inactive); in assay [13] it was 35 µM (inactive). The GI50 in assay [14] is 18.9 µM (inactive); in assay [15], 23 µM (inactive); in assay [16], 54.5 µM (inactive); in assay [18] it was 24.4 µM (inactive); in assay [19], 31.6 µM (inactive).

As to `O=C(O)C(=Cc1ccnc2ccccc12)C(=O)O`, the GI50 in assay [1], in [2], in [3], in assay [4], in assay [20] and in [5] was > 100 µM (inactive) throughout. Besides, the GI50 in assay [6], in assay [7], in assay [8], in assay [9], in assay [10] and in assay [11] was > 100 µM (inactive) throughout. Moreover, the GI50 in assay [12], in assay [13], in assay [16], in assay [17], in assay [18] and in assay [19] was > 100 µM (inactive) in each case.

As for `CC(C)(C)[Si](C)(C)Oc1ccc(C2CNC(=O)C23CCC(=O)N3Cc2ccccc2)cc1` (centres undefined), the GI50 in assay [1] was 6.14 µM (inactive); in assay [2], 20.5 µM (inactive); in assay [3], 12.6 µM (inactive); in [4] it was 16.6 µM (inactive); in assay [20], 16.7 µM (inactive); in [5] it was 12.5 µM (inactive). The GI50 was 12.8 µM (inactive) in assay [6]; 13.2 µM (inactive) in assay [7]; 17.8 µM (inactive) in assay [8]; 19.7 µM (inactive) in [9]; 18.2 µM (inactive) in assay [10]; 15.5 µM (inactive) in assay [12]. The GI50 in assay [13] is 11.4 µM (inactive); in assay [14] it was 12.4 µM (inactive); in assay [16], 16.7 µM (inactive); in assay [17] it was 4.62 µM (inactive); in [18] it was 4.15 µM (inactive); in assay [19], 22.2 µM (inactive).

`O=C1c2c(Br)sc(Br)c2[C@@H](Cl)[C@H]1Cl`: the GI50 in assay [1] is 14.9 µM (inactive); in assay [2], 17.9 µM (inactive); in assay [3], 19.1 µM (inactive); in assay [4], 18.9 µM (inactive); in [20], 18.7 µM (inactive); in assay [5], 14.5 µM (inactive). Further, the GI50 is 33.1 µM (inactive) in assay [6]; 29 µM (inactive) in assay [7]; 17.6 µM (inactive) in assay [8]; 20.7 µM (inactive) in [9]; 19.1 µM (inactive) in [10]; 23.3 µM (inactive) in assay [11]. Besides, the GI50 in [12] was 19.4 µM (inactive); in assay [13], 12.9 µM (inactive); in assay [14] it was 19.3 µM (inactive); in assay [16], 12.5 µM (inactive); in assay [17], 3.27 µM (inactive); in [18], 18.2 µM (inactive). In addition, the GI50 in assay [19] is 22.8 µM (inactive).

Consider `COC(=O)C12Oc3ccc(-c4ccc5c(c4O)C(O)=C4C(=O)CC(C)C(O)C4(C(=O)OC)O5)c(O)c3C(O)=C1C(=O)CC(C)C2O` (centres undefined), for which the GI50 in [1] is 0.0641 µM (active); in [2], 0.0644 µM (active); in assay [3], 0.0843 µM (active); in [4] it was 0.0798 µM (active); in assay [20], 0.547 µM (active); in assay [5], 0.0525 µM (active). Moreover, the GI50 was 0.485 µM (active) in assay [6]; 0.231 µM (active) in assay [7]; 0.241 µM (active) in assay [8]; 0.346 µM (active) in assay [9]; 0.0217 µM (active) in assay [10]; 0.0397 µM (active) in [11]. The GI50 in assay [12] was 0.103 µM (active); in [13], 0.0615 µM (active); in assay [14], 0.0634 µM (active); in assay [16], 0.055 µM (active); in assay [17], 0.102 µM (active); in assay [18], 0.0494 µM (active). The GI50 in assay [19] is 0.126 µM (active).

Usually GI50 stands for the concentration at which growth is held to half of that of the control.
